From US11213546B2, “Methods to mobilize tissue resident cells for adoptive t cell therapy” (Emory University, priority 2017, dated 2022)

System: circulating CD8+ TSP cells and CD34+ SP+ HSCs
Conditions: human peripheral blood
Source text: Peripheral blood mononuclear cells (PBMCs) from healthy donors were isolated from buffy coats purchased from New York Blood Center. Gut T cells were obtained from uninvolved intestine in patients undergoing surgery for diverticular disease or gut biopsies. Bone marrow aspirates were obtained from patients with cancer undergoing diagnostic bone marrow biopsies. In some patients, blood samples were collected before and after stem cell mobilization protocol with plerixafor. […] The cells were then washed in ice-cold Hoechst wash buffer and analyzed with BD LSR-II containing UV laser.

## c1cc(CN2CCCNCCNCCCNCC2)ccc1CN1CCCNCCNCCCNCC1 [plerixafor, Plerixafor]
Baseline vs after mobilization, within 24 hours of injection, n=6
  circulating CD8+ TSP cells: marked increase
Concurrent with the CD8+ TSP increase
  mobilization of CD34+ SP+ HSCs: mobilization
